Data on three compounds can be found in US20210317090A1, “AMINO ACID DEPLETION AGENTS AS ANTIPROLIFERATIVE AGENTS” (University of Central Florida Research Foundation, Inc., priority 2018, published 2021).

Assay [1] deals with CHO K1 cells. Kind of assay: cells. In kind it is cell-based, Chinese hamster. As to conditions: Cricetulus griseus, Ant-44 0.5 μM. The protocol:
Various embodiments involve the concept that a non-toxic PTI agent would inhibit the uptake of the cytotoxic polyamine conjugate Ant-44 (11) and rescue cells from Ant-44 induced toxicity. For example, using the IC50 dose of Ant-44, PTIs could be identified by measuring a compound's ability to block Ant-44 entry and rescue cells back to >90% viability. […] This toxic dose of Ant-44 was kept constant throughout the assay, while the candidate PTI compound was added in increasing concentrations up to its MTD.
Compounds (9 and 10) were tested at 5 μM and 7 μM. CHO K1 cells were treated in a 96-well plate with a toxic dose of Ant-44 (2.4 μM) alone and dosed with the candidate compounds (at 5 μM and 7 μM) and incubated for 48 h at 37° C.
To further explore this effect, development of various embodiments included modifying an original screen to use a lower dose of Ant-44 (0.5 μM) to improve the dose range of 9 and 10 that could be tested. In this regard, Ant-44 was dosed at 0.5 μM alone and in combination with increasing doses of compounds 9 (1666.177) and 10 (1666.255) and the CHO K1 cells were incubated for 48 h at 37° C., and the results are shown in FIG. 5. The red line represents the % cell viability of the Ant-44 only control. The Ant44 potentiation assay EC50 value is defined as the concentration of the candidate compound required to decrease the cell viability to half that of the Ant-44 only control. Both compounds 9 and 10 were effective at decreasing cell viability, when used in combination with Ant-44 in a dose dependent fashion.
FIG. 5 is an example according to various embodiments, illustrating potentiation of Ant-44 toxicity by compounds 9 and 10 in CHO K1 cells. Cells were incubated for 48 h at 37° C. with the respective compound and a fixed concentration of cytotoxic Ant-44 (0.5 μM). A 1 mM AG solution was incubated with the CHO K1 cells for 24 h prior to the addition of candidate compound. This was necessary to protect Ant-44 from the amine oxidases present in the media containing fetal bovine serum. […] Both compounds are nontoxic at the highest concentration tested (5 μM).

Assay [2] has as its system CHO K1 cells. Kind of assay: Cytotoxicity dose-response (MTS cell viability) in CHO K1 cells. As to conditions: 48 h. In kind it is cell-based, Chinese hamster. The protocol: CHO K1 Studies. Wild type Chinese hamster ovary (CHO K1) cells were chosen to first study the synthetic compounds' impact on polyamine metabolism. The CHO K1 cell line has high polyamine transport activity and was useful in screening compounds for their polyamine transport inhibitor activity. A dose-response curve was obtained for each compound to determine their toxicity in CHO K1 cells after 48 h incubation. Compound 9 (1666.177) was non-toxic up to the highest dose tested (15 μM).
(§1) Regarding the biological studies performed in the following examples, it is noted that CHO K1, CHO-MG, and L3.6pl cells were grown in RPMI 1640 medium supplemented with 10% fetal bovine serum (FBS) and 1% penicillin/streptomycin. All cells were grown at 37° C. under a humidified 5% CO2 atmosphere. Aminoguanidine (1 mM used for CHO K1 and CHOMG cells and 250 μM for L3.6pl) was added to the growth medium to prevent oxidation of the compounds of the bovine serum amine oxidase enzyme that is present in calf serum. The cells used were in early to mid log phase and CHO and CHOMG were plated out at 1000 cells/well, whereas the L3.6pl cells were plated at 500 cells/well in a 96 well plate format.
(§2) This example illustrates aspects according to various embodiments pertaining to IC50 determinations and cell viability studies. Cell growth was assayed in sterile 96-well microtiter plates (Costar 3599, Corning, N.Y.). CHO K1 or CHOMG cells were plated at 1,000 cells/70 μL and L3.6pl cells at 500 cells/70 μL. The drug solutions of appropriate concentration in phosphate buffered saline (PBS) were added 10 μL per well after overnight incubation. After drug exposure (e.g., for 48 h for CHO K1 and CHO-MG and 48 h or 72 h for L3.6pl), cell growth was determined by measuring formazan formation from the 3-(4,5dimethylthiazol-2-yl)-5-(3-carboxymethoxyphenyl)-2-(4-sulfenyl)-2H tetrazolium, inner salt (MTS) using SynergyMx Biotek microplate reader for absorbance (490 nm) measurements.^27 All experiments were run in triplicate.

In assay [3] the test system is L3.6pl human pancreatic cancer cells. Kind of assay: Cytotoxicity dose-response (MTS) in L3.6pl cells. Format: cell-based. The method, then:
L3.6pl Studies. Compounds 9 and 10 were evaluated in the metastatic human pancreatic cancer cell line, L3.6pl. L3.6pl has a K-ras mutation, and high polyamine uptake activity.^7 A dose-response curve was obtained for each compound in L3.6pl cells to determine the 72 h L3.6pl IC50 value, described as the dose at which L3.6pl cells were 50% viable compared to the untreated control.
as §1, §2

Another assay deals with L3.6pl cells. Kind of assay: Ant-44 toxicity potentiation assay in L3.6pl cells. Format: cell-based, human. As to conditions: Homo sapiens, Ant-44 2 μM, 72 h. The method, then: As performed previously with CHO K1 cells, L3.6pl cells were treated with compounds 9 (1666.177) and 10 (1666.255) and a fixed dose of Ant-44 to observe the potentiation effect. The 72 h IC50 dose of Ant-44 in L3.6pl cells was previously determined to be 4 μM. For this study, half that dose was used to replicate the large window used in the CHO experiments to look at reduction in cell viability. In a 96-well plate, L3.6pl cells were dosed with a fixed concentration of Ant-44 (2 μM) and increasing doses of compounds 9 (1666.177) and 10 (1666.255). Although both compounds were effective at reducing cell viability, higher doses were required compared to CHO K1 cells.
FIG. 6 is an example according to various embodiments, illustrating the ability of compounds 9 (1666.177) and 10 ([…]) to potentiate the effect of Ant-44 in L3.6pl cells. Cells were incubated for 72 h at 37° C. with the respective compound and Ant-44 (2 μM). A 250 μM AG solution was incubated with the cells for 24 h prior to addition of compounds. […] Both compounds are nontoxic at the second highest concentration tested (1 μM).

Assay [4] deals with CHO K1 cells. The note with it: previously determined (ref 7), read-out: 48 h IC50; cited from earlier work.
In assay [5] the target is T1, LAT-1 (Homo sapiens, UniProt Q01650).
T1 construct: endogenous in cells; host or cells: L3.6pl human pancreatic cancer cells
Kind of assay: 3H-Leucine efflux assay. The note with it: L3.6pl, 2 min; JPH-203 30 μM or compound 10 20 μM. In kind it is cell-based. The source says:
JPH203 is not toxic to L3.6pl cells over this concentration range and time interval. FIG. 10E is an example according to various embodiments, illustrating results obtained for a Leu uptake inhibition experiment with compound 10. Note: the y-axis in FIG. 10E is in CPM per ug of protein to normalize the data and account for any potential losses of cells due to toxicity of compound 10. FIG. 10F is an example according to various embodiments, illustrating results obtained for a Leucine efflux experiment with LAT-1 inhibitor JPH-203. Briefly, the efflux procedure involved cells pre-incubated with ‘hot’ leucine (3H labeled) and washed to remove unbound radiolabeled Leucine. The cells were then incubated in the presence and absence of unlabeled Leucine (100 μM) and/or the LAT-1 inhibitor JPH-203 (30 μM). In the presence of unlabeled leucine, the cells released ‘hot’ 3H-leucine into the media which was measured via scintillation/radioactivity counts. This efflux or release from within the cell was inhibited by the presence of the LAT-1 inhibitor, JPH-203 (30 μM, FIG. 10F). Since JPH203 inhibits the import of unlabeled leucine then less unlabeled Leucine will enter the cell and less efflux of radiolabeled Leucine molecules from inside the cell will be observed. This is consistent with JPH-203 being a LAT-1 inhibitor. FIG. 10G is an example according to various embodiments, illustrating results obtained for a two minute Leucine efflux experiment with compound 10. Cells were pre-incubated with ‘hot’ leucine (^3H labeled) and washed to remove unbound radiolabeled Leucine. The cells were then incubated in the presence and absence of unlabeled “cold” Leucine (100 μM) and/or the compound 10 (20 μM). In the presence of unlabeled ‘cold’ leucine, the cells released ‘hot’ ^3H-leucine into the media which was measured via scintillation/radioactivity counting. […] The efflux experiment was repeated and the time for monitoring efflux increased to 30 minutes. […] In summary, compound 10 inhibits Leucine uptake and facilitates LAT-1 mediated efflux.
^3H-Leucine Efflux Assay ^3H-Leucine efflux experiments were performed according to the protocol developed by Hälfliger et al. (2018) (referenced below) with the following changes. Briefly, cells were preloaded with 12 μM stock of L-[^3H]leucine (79 Ci/mmol) to give a final concentration of ^3H-leucine was 1.2 μM in each well. […] The medium was then collected and mixed with scintillation fluid (Scintiverse™ BD Cocktail) and radioactivity measured (Beckman Coulter LS 6500 Multi-Purpose Scintillation Counter). […] The lysate (300 μL) was mixed with scintillation fluid and radioactivity was counted. Relative efflux was expressed as percentage radioactivity=100%×(radioactivity of medium)/(radioactivity of the medium+radioactivity of the cells). […]

In assay [6] the target is T1, LAT-1. Kind of assay: 3H-Leucine uptake assay. In kind it is cell-based. The note with it: L3.6pl cells, increasing concentration, 15 min uptake (FIG. 10D, 10E). The protocol:
^3H-Leucine uptake experiments were performed according to the protocol developed by Hälfliger et al. (2018) (referenced below with the following changes. Briefly, cells were seeded at 60% confluency in a 24-well plate and incubated for 4 h at 37° C. After 4 hours, different concentrations of compound 10 were added and the cells were then incubated overnight. L-^3H-leucine uptake inhibition was measured for 15 minutes using a 12 μM stock of L-[^3H]leucine (79 Ci/mmol). The final concentration of ^3H-leucine in each well was 1.2 uM. This concentration produced a CPM reading of ˜4000 cpm for the control. Uptake was terminated by removing the buffer solution followed by washing the cells with cold Na^+-free Hank's Balanced Salt Solution. Cells were then lysed to give ˜500 μL of cell lysate. A portion of the cell lysate (200 μL) was mixed with Scintiverse™ BD Cocktail for determining radiocounts. The radioactivity was measured with a scintillation counter (Beckman Coulter LS 6500 Multi-Purpose Scintillation Counter). Another portion of the cell lysate (300 μL) was used for protein determination using the BCA method. The final data was expressed as cpm/microgram of protein to account for the different number of cells remaining after the experiment. This was necessary because compound 10 was toxic and less cells were present after the overnight incubation (24 h). […]

The structures appear in SMILES notation. Like-named read-outs stand apart in the source and are kept apart here.

T1 sequence (Q01650 whole entry): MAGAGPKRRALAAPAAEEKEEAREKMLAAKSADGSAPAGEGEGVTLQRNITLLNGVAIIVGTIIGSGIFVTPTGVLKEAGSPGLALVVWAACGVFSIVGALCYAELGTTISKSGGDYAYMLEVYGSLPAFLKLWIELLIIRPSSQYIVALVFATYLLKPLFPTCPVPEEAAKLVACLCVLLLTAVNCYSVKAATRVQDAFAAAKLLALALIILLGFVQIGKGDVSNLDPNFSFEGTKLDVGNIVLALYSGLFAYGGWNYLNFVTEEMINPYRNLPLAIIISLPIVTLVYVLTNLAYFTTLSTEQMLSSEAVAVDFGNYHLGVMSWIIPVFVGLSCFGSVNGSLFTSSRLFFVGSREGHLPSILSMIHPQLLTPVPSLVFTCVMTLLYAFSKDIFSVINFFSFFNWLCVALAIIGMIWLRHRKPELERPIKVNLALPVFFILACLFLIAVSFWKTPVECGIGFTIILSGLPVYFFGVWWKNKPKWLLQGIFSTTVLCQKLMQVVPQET
T1 sequence (P08195 102-630 partner): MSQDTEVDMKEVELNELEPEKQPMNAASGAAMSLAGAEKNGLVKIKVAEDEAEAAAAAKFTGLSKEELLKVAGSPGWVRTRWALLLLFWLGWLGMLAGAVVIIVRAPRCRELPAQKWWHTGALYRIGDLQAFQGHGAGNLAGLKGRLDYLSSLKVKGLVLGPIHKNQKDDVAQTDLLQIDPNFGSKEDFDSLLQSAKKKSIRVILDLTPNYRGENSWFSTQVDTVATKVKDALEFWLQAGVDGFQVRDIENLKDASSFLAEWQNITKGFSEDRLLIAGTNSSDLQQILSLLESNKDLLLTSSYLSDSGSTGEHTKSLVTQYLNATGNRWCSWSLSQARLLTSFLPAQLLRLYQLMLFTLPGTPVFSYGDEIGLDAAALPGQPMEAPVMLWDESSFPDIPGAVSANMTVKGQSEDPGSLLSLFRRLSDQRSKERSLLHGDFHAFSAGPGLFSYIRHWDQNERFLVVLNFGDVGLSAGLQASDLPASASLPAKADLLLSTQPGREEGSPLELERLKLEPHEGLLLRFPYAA

On to `CC(C)(C)CCN1CCN(C(CNCc2ccccc2)Cc2ccccc2)CC1Cc1ccccc1.Cl.Cl.Cl` (stereo not drawn) [Compound 9, Benzyl-{2-[3-benzyl-4-(3,3-dimethyl-butyl)-piperazin-1-yl]-3-phenyl-propyl}-amine trihydrochloride salt], for which the concentration for a half-maximal effect (EC50) in the assay on CHO K1 cells [1] (CHO K1 cells, 48 h (FIG. 5), read-out: Ant-44 potentiation EC50) was 0.75 µM; with CHO K1 cells [1] (CHO cells, 48 h, read-out: Ant44 potentiation assay EC50) it was 0.75 µM; in the assay with L3.6pl cells it was 3.27 ± 0.17 µM. The “toxicity of compound alone” value is listed as “nontoxic” in the assay with CHO K1 cells [2] (CHO K1, highest concentration tested (5 μM)) and “nontoxic” in assay [3] (L3.6pl, second highest concentration tested (1 μM), 72 h). In addition, the “toxicity (dose-response curve)” value in the assay on CHO K1 cells [2] (CHO K1 cells, up to the highest dose tested (15 μM)) is “non-toxic”. In assay [3] (Homo sapiens, L3.6pl cells, 72 h, read-out: 72 h IC50), the concentration for half-maximal inhibition (IC50) was 11.7 ± 0.9 µM.

In the case of `NCCC[C@](N)(C(=O)O)C(F)F` [DFMO, α-difluoromethylornithine], the 50% inhibitory concentration (IC50) in the assay on CHO K1 cells [4] was 4200 µM.

With `Nc1cc(COc2c(Cl)cc(C[C@H](N)C(=O)O)cc2Cl)c2oc(-c3ccccc3)nc2c1` [JPH-203, reference compound], at LAT-1 [5], the “3H-leucine efflux stimulated by unlabeled Leucine (100 μM)” value is reported as “inhibited” and the “3H-leucine efflux, compound alone” value is listed as “modestly stimulated efflux”. Moreover, the 3H-Leucine uptake entry on LAT-1 [6] was “dose dependent decrease in 3H-Leucine uptake”. In addition, in assay [3] (over the concentration range and time interval of the uptake experiment), the “toxicity to L3.6pl cells” value is listed as “not toxic”.
